Data taken from PubChem BioAssay (NCI).
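96-well plates; 48 h exposure; 5 concentrations. Endpoints by linear interpolation between flanking doses. Not reached: highest tested concentration assigned. Abbreviation: GI50, concentration required for 50% inhibition of growth. The concentration for full growth arrest is given as TGI.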 Where a SMILES comes first, the peptide text is derived from it. The star is where a group is joined. OSu = O=C1CCC(=O)N1O*

Tests used:
Experiment in all cases: NCI anticancer screen, dose series, 48 h
EKVX NSCLC = test system: EKVX NSCLC
A549 NSCLC = test system: A549 NSCLC
786-0 renal = test system: 786-0 renal
HOP-62 NSCLC = test system: HOP-62 NSCLC
SN12C renal = test system: SN12C renal
U251 CNS = test system: U251 CNS
SR leukemia = test system: SR leukemia
HL-60(TB) leukemia = test system: HL-60(TB) leukemia
HCC-2998 colon = test system: HCC-2998 colon
NCI-H460 lung = test system: NCI-H460 lung
LOX IMVI melanoma = test system: LOX IMVI melanoma
HT29 colon = test system: HT29 colon
HCT-15 colon = test system: HCT-15 colon
HCT-116 colon = test system: HCT-116 colon
UACC-257 melanoma = test system: UACC-257 melanoma
MDA-MB-435 = test system: MDA-MB-435
BT-549 breast = test system: BT-549 breast
PC-3 prostate = test system: PC-3 prostate

SMILES | TGI (EKVX NSCLC) [µM] | TGI (A549 NSCLC) [µM] | TGI (786-0 renal) [µM] | TGI (HOP-62 NSCLC) [µM] | TGI (SN12C renal) [µM] | TGI (U251 CNS) [µM] | TGI (SR leukemia) [µM] | TGI (HL-60(TB) leukemia) [µM] | TGI (HCC-2998 colon) [µM] | TGI (NCI-H460 lung) [µM] | TGI (LOX IMVI melanoma) [µM] | TGI (HT29 colon) [µM] | TGI (HCT-15 colon) [µM] | GI50 (HCT-116 colon) [µM] | TGI (HCT-116 colon) [µM] | TGI (UACC-257 melanoma) [µM] | TGI (MDA-MB-435) [µM] | TGI (BT-549 breast) [µM] | TGI (PC-3 prostate) [µM]
O=c1cc(-c2ccc3c(c2)OCO3)[nH]c2cc3c(cc12)OCO3 | > 100 | > 100 | > 100 | 63 | > 100 | 99 | 52.1 | 66.6 | > 100 | > 100 | > 100 | > 100 | > 100 | 38 | > 100 | – | – | – | –
CCOC(=O)/C(=C/c1ccc(OC)cc1)N(CC)CC | > 100 | > 100 | > 100 | > 100 | > 100 | > 100 | > 100 | > 100 | > 100 | > 100 | > 100 | > 100 | > 100 | – | > 100 | > 100 | – | – | –
CCOC(=O)c1cc(-c2ccc(OC)cc2)c([N+](=O)[O-])n1C | > 10 | > 10 | > 10 | – | > 10 | > 10 | > 10 | > 10 | > 10 | > 10 | – | > 10 | > 10 | – | > 10 | > 10 | > 10 | > 10 | –
NC(Cc1ccccc1)C(=O)NC(Cc1ccccc1)NC(=O)C(Cc1c[nH]c2ccccc12)C(=O)O (configuration not stated) | > 100 | > 100 | > 100 | > 100 | > 100 | > 100 | > 100 | > 100 | > 100 | > 100 | > 100 | > 100 | > 100 | – | > 100 | > 100 | > 100 | – | > 100
N#Cc1cccc(-n2[nH]c(=O)ccc2=O)c1 | – | > 100 | > 100 | > 100 | – | > 100 | > 100 | > 100 | > 100 | > 100 | – | > 100 | > 100 | – | > 100 | > 100 | – | – | –
CCOC(=O)C(=[N+]=[N-])C(=O)CN1C(=O)c2ccccc2C1=O | > 100 | > 100 | > 100 | > 100 | > 100 | > 100 | – | – | > 100 | > 100 | – | > 100 | > 100 | – | > 100 | > 100 | > 100 | > 100 | > 100
COc1cc2c(cc1O)[C@H](C)C(c1ccc(OC)c(OC)c1)O2 (some centres not stated) | > 100 | > 100 | 23.8 | > 100 | – | 37.8 | – | 13.7 | > 100 | 4.87 | 16 | 34.5 | 13.3 | – | 15.1 | 35.9 | – | – | –
CCCC/C=C/C=C/C=C/CCCCCCCC(=O)OCC(COC(=O)CCCCCCC/C=C/C1C=CC(CCCC)C(C(=O)O)C1C(=O)O)OC(=O)CCCCCCC/C=C/C=C/C=C/CCCC (configuration not stated) (tested in a mixture with another compound) | 43.4 | 37.1 | 31.7 | 38.6 | 44.3 | – | – | 41.1 | 40.7 | > 100 | 27.5 | 35.3 | 30.8 | – | 30.7 | 34.9 | – | – | –
O=C(Nc1c(O)[nH]c(=S)[nH]c1=O)c1ccccc1 | – | > 100 | > 100 | > 100 | > 100 | > 100 | > 100 | > 100 | – | > 100 | > 100 | > 100 | > 100 | – | > 100 | > 100 | – | – | –
O=c1[nH]c2cc(Cl)ccc2nc1/C(=N\Nc1ccccc1)C(O)c1ccc(Cl)c(Cl)c1 (configuration not stated) | > 100 | > 100 | > 100 | > 100 | > 100 | > 100 | > 100 | > 100 | > 100 | > 100 | > 100 | > 100 | > 100 | – | > 100 | > 100 | – | – | –
Cc1cn(C2OC(CO[Si](C)(C)C(C)(C)C)C(N(C)O[Si](C)(C)C(C)(C)C)C2[Se]c2ccccc2)c(=O)[nH]c1=O (configuration not stated) | – | 49.5 | 9.29 | 43.1 | > 100 | 24.5 | > 100 | > 100 | 0.491 | – | 10.2 | 16.8 | 30.1 | – | 19.9 | – | 21 | – | 34
COc1cccc(-c2cc(=O)c3cc(N4CCCCC4)ccc3[nH]2)c1 | > 100 | – | > 48 | > 43.9 | > 100 | > 85.9 | – | – | – | – | > 100 | 0.0316 | > 100 | – | – | > 100 | – | – | > 100
NCCCCC(NC(=O)C(N)Cc1ccc(O)cc1)C(=O)NC(CCCCN)C(=O)NC(CCCCN)C(=O)ON1C(=O)CCC1=O (configuration not stated) (H-YKKK-OSu; configuration not given here) | > 100 | > 100 | > 100 | > 100 | > 100 | > 100 | > 100 | > 100 | > 100 | > 100 | – | > 100 | > 100 | – | > 100 | > 100 | – | > 100 | > 100
O=C1c2cc3c(cc2CC12Cc1ccc4c(c1C2=O)CCC4)CCCC3 (configuration not stated) | > 100 | > 100 | > 100 | > 100 | – | > 100 | > 100 | > 100 | > 100 | > 100 | > 100 | > 100 | > 100 | – | > 100 | > 100 | > 100 | – | > 100
CC1(C)[C@@H](Cn2cc(I)c(=O)[nH]c2=O)CC[C@@]1(C)CO | > 100 | > 100 | > 100 | > 100 | > 100 | > 100 | – | – | > 100 | – | > 100 | – | > 100 | – | > 100 | > 100 | > 100 | – | > 100
CCn1cnc2c(=S)nc(N)[nH]c21 | > 100 | > 100 | > 100 | > 100 | > 100 | > 100 | > 100 | > 100 | > 100 | > 100 | > 100 | > 100 | > 100 | – | > 100 | > 100 | – | – | –
